In US20230278983A1, “INDOLE DERIVATIVES AND USES THEREOF FOR TREATING A CANCER” (Universite Claude Bernard Lyon 1, priority 2020, published 2023):
Like-named read-outs stand apart in the source and are kept apart here.

Target: CK2 (Homo sapiens (Human), UniProt P68400)
Test: Radiometric CK2 kinase assay
Format: biochemical
Conditions: for inhibition at 0.1 µM: compound at 0.10 μM; for inhibition at 1 µM: compound at 1 μM
[1] = inhibition of CK2 activity, ATP 10 μM

CK2, sequence (P68400 whole entry): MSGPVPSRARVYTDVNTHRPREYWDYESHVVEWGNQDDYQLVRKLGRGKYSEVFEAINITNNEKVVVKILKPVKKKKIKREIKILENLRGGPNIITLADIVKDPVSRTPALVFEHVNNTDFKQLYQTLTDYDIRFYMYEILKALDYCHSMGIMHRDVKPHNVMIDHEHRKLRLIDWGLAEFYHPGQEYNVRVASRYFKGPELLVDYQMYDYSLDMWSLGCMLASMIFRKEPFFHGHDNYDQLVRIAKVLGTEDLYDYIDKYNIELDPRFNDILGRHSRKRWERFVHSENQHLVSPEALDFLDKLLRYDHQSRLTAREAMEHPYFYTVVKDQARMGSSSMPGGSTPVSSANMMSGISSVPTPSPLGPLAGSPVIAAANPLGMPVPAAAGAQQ

CC(=O)c1[nH]c2ccc(F)cc2c1-c1cn(CC2CCN(CCNS(=O)(=O)c3ccc(-c4c(C)cccc4C#N)cc3)CC2)nn1 [AB1452, N-(2-(4-((4-(2-acetyl-5-fluoro-1H-indol-3-yl)-1H-1,2,3-triazol-1-yl)methyl)piperidin-1-yl)ethyl)-2′-cyano-6′-methyl-[1,1′-biphenyl]-4-sulfonamide]
inhibition at 0.1 µM (ATP 10 μM): 36%

CC(=O)c1[nH]c2ccc(F)cc2c1-c1cn(CC2CCN(CCNS(=O)(=O)N3CCC(c4c(F)cccc4F)CC3)CC2)nn1 [AB1316, N-(2-(4-((4-(2-acetyl-5-fluoro-1H-indol-3-yl)-1H-1,2,3-triazol-1-yl)methyl)piperidin-1-yl)ethyl)-4-(2,6-difluorophenyl)piperidine-1-sulfonamide]
IC50 [1]: 280 nM

CC(C)CC(=O)c1[nH]c2ccc(F)cc2c1-c1cn(CC2CCN(CCNS(=O)(=O)Cc3ccc(C(F)(F)F)cc3)CC2)nn1 [AB1306, N-(2-(4-((4-(5-fluoro-2-(3-methylbutanoyl)-1H-indol-3-yl)-1H-1,2,3-triazol-1-yl)methyl)piperidin-1-yl)ethyl)-1-(4-(trifluoromethyl)phenyl)methanesulfonamide]
IC50 [1]: 450 nM

O=C(c1[nH]c2ccc(F)cc2c1-c1cn(CC2CCN(CCNS(=O)(=O)c3ccc(-c4cccnc4Cl)cc3)CC2)nn1)C1CC1 [AB1232, 4-(2-chloropyridin-3-yl)-N-(2-(4-((4-(2-(cyclopropanecarbonyl)-5-fluoro-1H-indol-3-yl)-1H-1,2,3-triazol-1-yl)methyl)piperidin-1-yl)ethyl)benzenesulfonamide]
inhibition at 0.05 µM (compound at 0.05 μM, ATP 10 μM): 16%

CC(C)CCOc1ccccc1-c1ccc(C(=O)N2CCC(Cn3cc(-c4c(C(=O)OCC(C)C)[nH]c5ccc(F)cc45)nn3)CC2)cc1Cl [AB743, Isobutyl 3-(1-((1-(2-chloro-2′-(isopentyloxy)-[1,1′-biphenyl]-4-carbonyl)piperidin-4-yl)methyl)-1H-1,2,3-triazol-4-yl)-5-fluoro-1H-indole-2-carboxylate]
inhibition at 1 µM (ATP 10 μM): 9%

CC(C)COC(=O)c1[nH]c2ccc(F)cc2c1-c1cn(CC2CCN(CCNS(=O)(=O)c3ccc(C4CCCCC4)cc3)CC2)nn1 [AB914, isobutyl 3-(1-((1-(2-((4-cyclohexylphenyl)sulfonamido)ethyl)piperidin-4-yl)methyl)-1H-1,2,3-triazol-4-yl)-5-fluoro-1H-indole-2-carboxylate]
IC50: 71 nM

CC(C)Cc1ccc(S(=O)(=O)NCCN2CCC(Cn3cc(-c4c(CO)[nH]c5ccc(F)cc45)nn3)CC2)cc1 [AB1405, N-(2-(4-((4-(5-fluoro-2-(hydroxymethyl)-1H-indol-3-yl)-1H-1,2,3-triazol-1-yl)methyl)piperidin-1-yl)ethyl)-4-isobutylbenzenesulfonamide]
inhibition at 0.1 µM (ATP 10 μM): 11%

CC(C)COC(=O)c1[nH]c2ccc(F)cc2c1-c1cn(CC2CCN(CCNS(=O)(=O)N3CCC(c4ccccc4)CC3)CC2)nn1 [AB929, isobutyl 5-fluoro-3-(1-((1-(2-((4-phenylpiperidine)-1-sulfonamido)ethyl)piperidin-4-yl)methyl)-1H-1,2,3-triazol-4-yl)-1H-indole-2-carboxylate]
IC50 [1]: 58 nM

CC(C)CCNC(=O)c1[nH]c2ccc(F)cc2c1-c1cn(CC2CCN(CCNS(=O)(=O)c3ccc(C(C)C)cc3)CC2)nn1 [AB671, 5-Fluoro-N-isopentyl-3-(1-((1-(2-((4-isopropylphenyl)sulfonamido)ethyl)piperidin-4-yl)methyl)-1H-1,2,3-triazol-4-yl)-1H-indole-2-carboxamide]
inhibition at 1 µM (ATP 10 μM): 18%

CC(C)COC(=O)c1[nH]c2ccc(F)cc2c1-c1cn(CC2CCN(CCNS(=O)(=O)Cc3ccc(C(F)(F)F)cc3)CC2)nn1 [AB935, isobutyl 5-fluoro-3-(1-((1-(2-(((4-(trifluoromethyl)phenyl)methyl)sulfonamido)ethyl)piperidin-4-yl)methyl)-1H-1,2,3-triazol-4-yl)-1H-indole-2-carboxylate]
IC50 [1]: 49 nM

CC(=O)c1[nH]c2ccc(F)cc2c1-c1cn(CC2CCN(CCNS(=O)(=O)c3ccc(-c4ccc(F)cc4Cl)cc3)CC2)nn1 [AB1453, N-(2-(4-((4-(2-acetyl-5-fluoro-1H-indol-3-yl)-1H-1,2,3-triazol-1-yl)methyl)piperidin-1-yl)ethyl)-2′-chloro-4′-fluoro-[1,1′-biphenyl]-4-sulfonamide]
inhibition at 0.1 µM (ATP 10 μM): 40%

CCc1ccc(S(=O)(=O)NCCN2CCC(Cn3cc(-c4c(C(=O)OCCC(C)C)[nH]c5ccc(F)cc45)nn3)CC2)cc1 [AB663, Isopentyl 3-(1-((1-(2-((4-ethylphenyl)sulfonamido)ethyl)piperidin-4-yl)methyl)-1H-1,2,3-triazol-4-yl)-5-fluoro-1H-indole-2-carboxylate]
inhibition at 1 µM (ATP 10 μM): 11%

CC(=O)c1[nH]c2ccc(F)cc2c1-c1cn(C[C@@H]2CCN(CCNS(=O)(=O)c3ccc(CC(C)C)cc3)C2)nn1 [AB1319]
inhibition at 0.1 µM (ATP 10 μM): 33%

CC(=O)c1[nH]c2ccc(F)cc2c1-c1cn(CC2CCN(CCNS(=O)(=O)N3CCC(c4cccnc4F)CC3)CC2)nn1 [AB1322, N-(2-(4-((4-(2-acetyl-5-fluoro-1H-indol-3-yl)-1H-1,2,3-triazol-1-yl)methyl)piperidin-1-yl)ethyl)-4-(2-fluoropyridin-3-yl)piperidine-1-sulfonamide]
inhibition at 0.1 µM (ATP 10 μM): 10%

CCc1ccc(S(=O)(=O)NCCN2CCC(Cn3cc(-c4c(C(=O)NCC(C)C)[nH]c5ccc(F)cc45)nn3)CC2)cc1 [AB651, 3-(1-((1-(2-((4-Ethylphenyl)sulfonamido)ethyl)piperidin-4-yl)methyl)-111-1,2,3-triazol-4-yl)-5-fluoro-N-isobutyl-1H-indole-2-carboxamide]
inhibition at 1 µM (ATP 10 μM): 5%

CC(=O)c1[nH]c2ccc(F)cc2c1-c1cn(CC2CCN(CCNS(=O)(=O)c3ccc(-c4c(C)noc4C)cc3)CC2)nn1 [AB1286, N-(2-(4-((4-(2-acetyl-5-fluoro-1H-indol-3-yl)-1H-1,2,3-triazol-1-yl)methyl)piperidin-1-yl)ethyl)-4-(3,5-dimethylisoxazol-4-yl)benzenesulfonamide]
IC50: 430 nM

CC(C)COC(=O)c1[nH]c2ccc(F)cc2c1-c1cn(CC2CCN(CCNS(=O)(=O)c3ccc4c(c3)CCO4)CC2)nn1 [AB930, isobutyl 3-(1-((1-(2-((2,3-dihydrobenzofuran)-5-sulfonamido)ethyl)piperidin-4-yl)methyl)-1H-1,2,3-triazol-4-yl)-5-fluoro-1H-indole-2-carboxylate]
inhibition at 1 µM (ATP 10 μM): 45%

CCc1ccc(S(=O)(=O)NCCN2CCC(Cn3cc(-c4c(C(=O)NCCC(C)C)[nH]c5ccc(F)cc45)nn3)CC2)cc1 [AB670, 3-(1-((1-(2-((4-Ethylphenyl)sulfonamido)ethyl)piperidin-4-yl)methyl)-1H-1,2,3-triazol-4-yl)-5-fluoro-N-isopentyl-1H-indole-2-carboxamide]
inhibition at 1 µM (ATP 10 μM): 14%

CCc1ccc(S(=O)(=O)NCCN2CCC(Cn3cc(-c4c(C(=O)OCC(C)C)[nH]c5ccc(F)cc45)nn3)CC2)cc1 [AB556, Isobutyl 3-(1-((1-(2-((4-ethylphenyl)sulfonamido)ethyl)piperidin-4-yl)methyl)-1H-1,2,3-triazol-4-yl)-5-fluoro-1H-indole-2-carboxylate]
IC50: 170 nM

CC(C)COC(=O)c1[nH]c2ccc(Cl)cc2c1-c1cn(CC2CCN(CCNS(=O)(=O)c3ccc(Cl)cc3)CC2)nn1 [AB499, Isobutyl 5-chloro-3-(1-((1-(2-((4-chlorophenyl)sulfonamido)ethyl)piperidin-4-yl)methyl)-1H-1,2,3-triazol-4-yl)-1H-indole-2-carboxylate]
IC50: 670 nM

CC(C)CNC(=O)c1[nH]c2ccc(F)cc2c1-c1cn(CC2CCN(CCNS(=O)(=O)c3ccc(C(C)C)cc3)CC2)nn1 [AB652, 5-Fluoro-N-isobutyl-3-(1-((1-(2-((4-isopropylphenyl)sulfonamido)ethyl)piperidin-4-yl)methyl)-1H-1,2,3-triazol-4-yl)-1H-indole-2-carboxamide]
inhibition at 1 µM (ATP 10 μM): 4%

CCOC(=O)c1[nH]c2ccc(F)cc2c1-c1cn(CC2CCN(CCNS(=O)(=O)c3ccc4ccccc4c3)CC2)nn1 [AB536, Ethyl 5-fluoro-3-(1-((1-(2-(naphthalene-2-sulfonamido)ethyl)piperidin-4-yl)methyl)-1H-1,2,3-triazol-4-yl)-1H-indole-2-carboxylate]
IC50: 800 nM

O=S(=O)(NCCN1CCC(Cn2cc(-c3c[nH]c4ccccc34)nn2)CC1)c1ccccc1 [AB150, N-(2-(4-((4-(1H-Indol-3-yl)-1H-1,2,3-triazol-1-yl)methyl)piperidin-1-yl)ethyl)benzenesulfonamide]
IC50: 48500 nM

CC(C)COC(=O)c1[nH]c2ccc(F)cc2c1-c1cn(CC2CCN(CCNS(=O)(=O)N3CCC(Cc4ccccc4)CC3)CC2)nn1 [AB918, isobutyl 3-(1-((1-(2-((4-benzylpiperidine)-1-sulfonamido)ethyl)piperidin-4-yl)methyl)-1H-1,2,3-triazol-4-yl)-5-fluoro-1H-indole-2-carboxylate]
IC50 [1]: 400 nM

COCc1ccccc1-c1ccc(CN2CCC(Cn3cc(-c4c(C(=O)OCC(C)C)[nH]c5ccc(F)cc45)nn3)CC2)cc1C(C)C [AB704]
inhibition at 1 µM (ATP 10 μM): 21%

CCOC(=O)c1[nH]c2cc(Cl)ccc2c1-c1cn(CC2CCN(CCNS(=O)(=O)c3ccc(C)cc3)CC2)nn1 [AB503, Ethyl 6-chloro-3-(1-((1-(2-((4-methylphenyl)sulfonamido)ethyl)piperidin-4-yl)methyl)-1H-1,2,3-triazol-4-yl)-1H-indole-2-carboxylate]
IC50: 9850 nM

CC(C)COC(=O)c1[nH]c2ccc(F)cc2c1-c1cn(CC2CCN(CCNS(=O)(=O)c3ccc(-c4cn[nH]c4)cc3)CC2)nn1 [AB1032, isobutyl 3-(1-((1-(2-((4-(1H-pyrazol-4-yl)phenyl)sulfonamido)ethyl)piperidin-4-yl)methyl)-1H-1,2,3-triazol-4-yl)-5-fluoro-1H-indole-2-carboxylate]
IC50: 200 nM

CC(C)COC(=O)c1[nH]c2ccc(F)cc2c1-c1cn(CC2CCN(CCNS(=O)(=O)c3ccc(-c4cccnc4Cl)cc3)CC2)nn1 [AB1133, isobutyl 3-(1-((1-(2-((4-(2-chloropyridin-3-yl)phenyl)sulfonamido)ethyl)piperidin-4-yl)methyl)-1H-1,2,3-triazol-4-yl)-5-fluoro-1H-indole-2-carboxylate]
IC50: 26 nM
